Experimental data taken from ChEMBL document CHEMBL1145498, “A systematic interaction map of validated kinase inhibitors with Ser/Thr kinases” (Proc Natl Acad Sci U S A, 2007).

Experiments:
[1] = target: 5'-AMP-activated protein kinase catalytic subunit alpha-2 (Homo sapiens) (UniProt P54646)
[2] = target: Calcium/calmodulin-dependent protein kinase type 1D (Homo sapiens) (UniProt Q8IU85)
[3] = target: Calcium/calmodulin-dependent protein kinase type II subunit alpha (Homo sapiens) (UniProt Q9UQM7)
Sequence of Calcium/calmodulin-dependent protein kinase type II subunit alpha (Homo sapiens) (Q9UQM7 whole entry): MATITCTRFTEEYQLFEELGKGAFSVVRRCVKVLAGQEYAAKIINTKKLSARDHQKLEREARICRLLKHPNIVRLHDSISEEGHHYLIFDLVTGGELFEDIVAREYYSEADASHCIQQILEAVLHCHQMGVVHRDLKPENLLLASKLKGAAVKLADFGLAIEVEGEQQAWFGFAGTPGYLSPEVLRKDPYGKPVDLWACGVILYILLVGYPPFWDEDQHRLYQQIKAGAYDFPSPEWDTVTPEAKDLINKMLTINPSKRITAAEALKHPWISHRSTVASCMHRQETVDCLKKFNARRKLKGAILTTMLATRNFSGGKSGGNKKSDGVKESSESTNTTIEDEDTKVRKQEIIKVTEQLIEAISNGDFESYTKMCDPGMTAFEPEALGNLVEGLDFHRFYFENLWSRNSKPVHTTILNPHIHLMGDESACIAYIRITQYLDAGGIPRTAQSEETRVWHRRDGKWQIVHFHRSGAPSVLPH

[4] = target: Death-associated protein kinase 3 (Homo sapiens) (UniProt O43293)
Sequence of Death-associated protein kinase 3 (Homo sapiens) (O43293 whole entry, looked up): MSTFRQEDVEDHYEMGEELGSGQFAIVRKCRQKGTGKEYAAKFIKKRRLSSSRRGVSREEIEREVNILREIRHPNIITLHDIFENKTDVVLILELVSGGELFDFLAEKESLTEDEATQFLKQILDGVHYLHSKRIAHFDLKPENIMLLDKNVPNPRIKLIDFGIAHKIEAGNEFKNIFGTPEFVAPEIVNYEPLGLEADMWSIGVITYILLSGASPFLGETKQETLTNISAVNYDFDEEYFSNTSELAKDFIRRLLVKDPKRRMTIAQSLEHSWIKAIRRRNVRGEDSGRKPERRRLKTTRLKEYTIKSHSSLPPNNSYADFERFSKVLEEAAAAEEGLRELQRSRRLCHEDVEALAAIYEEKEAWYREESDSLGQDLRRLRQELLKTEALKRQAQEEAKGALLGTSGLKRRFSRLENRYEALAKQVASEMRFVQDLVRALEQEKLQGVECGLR

[5] = target: T1, Myotonin-protein kinase (Homo sapiens) (UniProt Q09013)
T1 sequence (whole entry): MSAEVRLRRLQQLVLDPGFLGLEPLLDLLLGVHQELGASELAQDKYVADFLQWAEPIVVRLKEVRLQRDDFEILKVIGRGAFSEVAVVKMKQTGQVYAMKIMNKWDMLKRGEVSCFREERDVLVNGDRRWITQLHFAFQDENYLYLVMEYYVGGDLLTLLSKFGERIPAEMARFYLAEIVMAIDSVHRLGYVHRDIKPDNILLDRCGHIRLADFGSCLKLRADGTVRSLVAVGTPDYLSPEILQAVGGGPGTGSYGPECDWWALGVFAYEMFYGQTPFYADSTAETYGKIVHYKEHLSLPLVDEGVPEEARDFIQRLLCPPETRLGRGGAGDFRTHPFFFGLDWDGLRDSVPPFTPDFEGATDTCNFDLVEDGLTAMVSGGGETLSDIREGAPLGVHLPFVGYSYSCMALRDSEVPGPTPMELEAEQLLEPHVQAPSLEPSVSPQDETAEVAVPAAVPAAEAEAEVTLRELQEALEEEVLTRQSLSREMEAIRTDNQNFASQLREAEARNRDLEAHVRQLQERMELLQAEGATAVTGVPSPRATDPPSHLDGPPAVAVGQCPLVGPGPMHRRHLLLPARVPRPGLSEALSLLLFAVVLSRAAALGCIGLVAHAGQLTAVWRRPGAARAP

[6] = target: Glycogen synthase kinase-3 beta (Homo sapiens, UniProt P49841)
Sequence of Glycogen synthase kinase-3 beta (P49841 whole entry, looked up): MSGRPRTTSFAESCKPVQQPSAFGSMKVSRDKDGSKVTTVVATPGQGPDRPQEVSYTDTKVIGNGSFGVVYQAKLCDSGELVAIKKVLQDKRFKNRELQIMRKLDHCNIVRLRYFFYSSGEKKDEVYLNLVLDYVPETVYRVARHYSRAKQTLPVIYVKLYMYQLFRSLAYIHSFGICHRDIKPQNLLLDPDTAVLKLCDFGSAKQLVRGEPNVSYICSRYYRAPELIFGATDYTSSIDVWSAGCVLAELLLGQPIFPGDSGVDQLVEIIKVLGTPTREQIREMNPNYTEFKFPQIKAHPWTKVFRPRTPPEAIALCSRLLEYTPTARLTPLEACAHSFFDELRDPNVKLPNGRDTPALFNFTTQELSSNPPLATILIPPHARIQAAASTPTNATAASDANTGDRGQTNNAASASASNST

[7] = target: Tyrosine-protein kinase JAK1 (Homo sapiens) (UniProt P23458)
[8] = target: Dual specificity mitogen-activated protein kinase kinase 2 (Homo sapiens, UniProt P36507)
Sequence of Dual specificity mitogen-activated protein kinase kinase 2 (P36507 whole entry): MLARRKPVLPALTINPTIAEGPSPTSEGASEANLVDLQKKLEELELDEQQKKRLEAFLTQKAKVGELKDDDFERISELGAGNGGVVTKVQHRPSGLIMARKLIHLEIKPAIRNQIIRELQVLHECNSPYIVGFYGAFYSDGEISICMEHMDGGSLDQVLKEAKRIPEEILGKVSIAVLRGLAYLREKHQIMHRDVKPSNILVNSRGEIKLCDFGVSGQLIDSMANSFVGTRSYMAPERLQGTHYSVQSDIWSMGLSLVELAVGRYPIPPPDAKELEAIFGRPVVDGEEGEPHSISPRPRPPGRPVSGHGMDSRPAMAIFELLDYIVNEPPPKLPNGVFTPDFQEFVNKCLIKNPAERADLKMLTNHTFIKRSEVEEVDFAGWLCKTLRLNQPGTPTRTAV

[9] = target: T2, Dual specificity mitogen-activated protein kinase kinase 6 (Homo sapiens) (UniProt P52564)
T2 sequence (whole entry): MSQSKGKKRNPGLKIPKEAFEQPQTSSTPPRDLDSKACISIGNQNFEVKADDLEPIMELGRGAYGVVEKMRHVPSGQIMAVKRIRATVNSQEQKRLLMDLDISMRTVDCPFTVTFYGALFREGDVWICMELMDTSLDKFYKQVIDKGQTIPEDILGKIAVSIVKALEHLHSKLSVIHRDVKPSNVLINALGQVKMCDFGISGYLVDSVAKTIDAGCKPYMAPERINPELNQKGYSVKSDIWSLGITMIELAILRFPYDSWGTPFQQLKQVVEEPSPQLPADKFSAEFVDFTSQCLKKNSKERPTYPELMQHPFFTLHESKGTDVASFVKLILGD

[10] = target: Mitogen-activated protein kinase 11 (Homo sapiens, UniProt Q15759)
Sequence of Mitogen-activated protein kinase 11 (Q15759 whole entry): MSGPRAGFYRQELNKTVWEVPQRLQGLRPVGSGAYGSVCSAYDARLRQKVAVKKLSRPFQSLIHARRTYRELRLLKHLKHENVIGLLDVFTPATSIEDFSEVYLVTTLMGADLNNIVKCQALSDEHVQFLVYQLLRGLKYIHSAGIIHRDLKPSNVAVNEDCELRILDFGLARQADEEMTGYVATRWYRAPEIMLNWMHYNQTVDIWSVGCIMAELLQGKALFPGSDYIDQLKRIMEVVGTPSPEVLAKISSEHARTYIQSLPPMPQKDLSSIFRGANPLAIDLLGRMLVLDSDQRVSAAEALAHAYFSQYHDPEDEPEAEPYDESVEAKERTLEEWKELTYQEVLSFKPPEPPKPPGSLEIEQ

[11] = target: Serine/threonine-protein kinase 26 (Homo sapiens) (UniProt Q9P289)
[12] = target: Serine/threonine-protein kinase pim-3 (Homo sapiens) (UniProt Q86V86)
[13] = target: Serine/threonine-protein kinase RIO2 (Homo sapiens) (UniProt Q9BVS4)
Sequence of Serine/threonine-protein kinase RIO2 (Homo sapiens) (Q9BVS4 whole entry, looked up): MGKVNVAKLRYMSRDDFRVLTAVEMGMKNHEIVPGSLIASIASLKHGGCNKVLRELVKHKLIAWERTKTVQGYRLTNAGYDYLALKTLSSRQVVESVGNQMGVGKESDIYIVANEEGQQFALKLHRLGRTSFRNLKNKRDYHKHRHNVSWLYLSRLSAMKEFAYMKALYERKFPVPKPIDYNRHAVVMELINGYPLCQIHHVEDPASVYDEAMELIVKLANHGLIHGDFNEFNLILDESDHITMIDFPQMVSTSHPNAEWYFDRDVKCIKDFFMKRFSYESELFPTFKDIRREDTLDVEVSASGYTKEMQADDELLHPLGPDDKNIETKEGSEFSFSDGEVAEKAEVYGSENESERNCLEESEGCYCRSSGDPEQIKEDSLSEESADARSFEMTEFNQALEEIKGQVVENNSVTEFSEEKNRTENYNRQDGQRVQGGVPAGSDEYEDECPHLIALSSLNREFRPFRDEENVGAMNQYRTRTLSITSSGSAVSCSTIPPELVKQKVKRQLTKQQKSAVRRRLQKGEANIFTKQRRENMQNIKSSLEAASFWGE

[14] = target: Serine/threonine-protein kinase 10 (Homo sapiens) (UniProt O94804)
Sequence of Serine/threonine-protein kinase 10 (Homo sapiens) (O94804 whole entry, looked up): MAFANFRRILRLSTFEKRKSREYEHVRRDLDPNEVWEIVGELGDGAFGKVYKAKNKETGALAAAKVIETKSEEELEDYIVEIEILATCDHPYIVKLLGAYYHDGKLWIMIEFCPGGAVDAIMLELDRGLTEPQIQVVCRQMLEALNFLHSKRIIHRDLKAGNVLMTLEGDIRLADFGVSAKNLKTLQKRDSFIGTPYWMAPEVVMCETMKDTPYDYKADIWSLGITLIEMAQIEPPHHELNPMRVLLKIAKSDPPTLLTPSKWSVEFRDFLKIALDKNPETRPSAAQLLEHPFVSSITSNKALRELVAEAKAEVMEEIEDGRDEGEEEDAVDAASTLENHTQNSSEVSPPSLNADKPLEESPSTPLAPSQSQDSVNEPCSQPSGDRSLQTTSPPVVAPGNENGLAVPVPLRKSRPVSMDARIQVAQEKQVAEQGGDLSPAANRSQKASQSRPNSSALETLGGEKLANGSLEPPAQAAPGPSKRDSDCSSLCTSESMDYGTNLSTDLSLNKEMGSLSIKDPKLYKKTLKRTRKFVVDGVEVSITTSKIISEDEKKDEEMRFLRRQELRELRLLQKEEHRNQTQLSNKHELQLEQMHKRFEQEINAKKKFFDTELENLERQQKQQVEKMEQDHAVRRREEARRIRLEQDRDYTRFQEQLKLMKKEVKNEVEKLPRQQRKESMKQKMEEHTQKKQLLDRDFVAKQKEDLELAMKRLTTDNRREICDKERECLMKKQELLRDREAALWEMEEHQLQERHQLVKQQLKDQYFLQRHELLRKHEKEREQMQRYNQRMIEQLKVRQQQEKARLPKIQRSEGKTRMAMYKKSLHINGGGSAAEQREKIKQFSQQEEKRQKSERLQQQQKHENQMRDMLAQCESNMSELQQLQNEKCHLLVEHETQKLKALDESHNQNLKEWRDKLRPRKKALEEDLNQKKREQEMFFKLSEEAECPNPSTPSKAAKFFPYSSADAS

[15] = target: T3, Serine/threonine-protein kinase 17A (Homo sapiens) (UniProt Q9UEE5)
T3 sequence (whole entry): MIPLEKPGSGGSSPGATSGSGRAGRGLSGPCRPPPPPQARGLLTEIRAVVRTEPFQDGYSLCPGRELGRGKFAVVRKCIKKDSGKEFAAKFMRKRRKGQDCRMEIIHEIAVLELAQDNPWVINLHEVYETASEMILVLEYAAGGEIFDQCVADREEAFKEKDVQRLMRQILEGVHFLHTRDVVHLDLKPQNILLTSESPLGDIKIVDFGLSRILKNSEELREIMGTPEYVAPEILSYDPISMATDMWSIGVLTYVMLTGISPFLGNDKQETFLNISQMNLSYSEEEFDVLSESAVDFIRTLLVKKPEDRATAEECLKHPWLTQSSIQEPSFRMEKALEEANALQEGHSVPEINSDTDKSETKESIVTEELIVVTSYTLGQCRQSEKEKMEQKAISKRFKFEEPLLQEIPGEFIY

[16] = target: T4, Lymphokine-activated killer T-cell-originated protein kinase (Homo sapiens) (UniProt Q96KB5)
T4 sequence (whole entry): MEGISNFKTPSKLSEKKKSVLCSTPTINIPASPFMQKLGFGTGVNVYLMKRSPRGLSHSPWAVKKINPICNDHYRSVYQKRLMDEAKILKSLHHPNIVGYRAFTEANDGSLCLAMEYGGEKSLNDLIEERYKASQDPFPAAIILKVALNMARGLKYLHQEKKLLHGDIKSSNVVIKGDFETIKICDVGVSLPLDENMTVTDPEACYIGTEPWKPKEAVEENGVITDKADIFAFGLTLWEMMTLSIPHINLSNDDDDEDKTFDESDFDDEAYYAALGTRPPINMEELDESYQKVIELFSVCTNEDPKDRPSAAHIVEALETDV

[17] = target: Serine/threonine-protein kinase 25 (Homo sapiens) (UniProt O00506)

Sequence of 5'-AMP-activated protein kinase catalytic subunit alpha-2 (Homo sapiens) (P54646 whole entry, looked up): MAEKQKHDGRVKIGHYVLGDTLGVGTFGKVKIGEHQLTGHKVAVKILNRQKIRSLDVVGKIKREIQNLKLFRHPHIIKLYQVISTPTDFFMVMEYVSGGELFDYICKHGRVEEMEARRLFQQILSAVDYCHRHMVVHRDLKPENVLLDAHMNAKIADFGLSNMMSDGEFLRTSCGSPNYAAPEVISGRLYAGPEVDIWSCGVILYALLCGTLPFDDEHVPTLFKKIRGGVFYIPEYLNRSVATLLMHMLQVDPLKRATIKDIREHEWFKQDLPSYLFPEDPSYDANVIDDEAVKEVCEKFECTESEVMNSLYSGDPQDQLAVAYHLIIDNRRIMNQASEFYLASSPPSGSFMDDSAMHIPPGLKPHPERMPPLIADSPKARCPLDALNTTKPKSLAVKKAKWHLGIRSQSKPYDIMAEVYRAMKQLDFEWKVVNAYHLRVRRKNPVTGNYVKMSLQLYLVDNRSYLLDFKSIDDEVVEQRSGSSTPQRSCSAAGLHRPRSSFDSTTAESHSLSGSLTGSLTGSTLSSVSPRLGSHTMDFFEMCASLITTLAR
Sequence of Calcium/calmodulin-dependent protein kinase type 1D (Homo sapiens) (Q8IU85 whole entry, looked up): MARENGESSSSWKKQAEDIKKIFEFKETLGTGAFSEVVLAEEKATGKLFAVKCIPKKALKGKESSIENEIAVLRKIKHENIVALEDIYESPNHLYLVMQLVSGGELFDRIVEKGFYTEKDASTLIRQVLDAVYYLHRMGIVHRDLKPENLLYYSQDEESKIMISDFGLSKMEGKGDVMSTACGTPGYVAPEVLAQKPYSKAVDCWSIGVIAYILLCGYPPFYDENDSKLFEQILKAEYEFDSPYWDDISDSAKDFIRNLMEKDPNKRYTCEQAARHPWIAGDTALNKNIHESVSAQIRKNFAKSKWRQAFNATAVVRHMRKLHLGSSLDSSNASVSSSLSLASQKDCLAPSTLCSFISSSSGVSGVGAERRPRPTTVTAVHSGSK

Row | SMILES | ΔTm [1] [°C] | ΔTm [2] [°C] | ΔTm [3] [°C] | ΔTm [5] [°C] | ΔTm [6] [°C] | ΔTm [7] [°C] | ΔTm [8] [°C] | ΔTm [9] [°C] | ΔTm [10] [°C] | ΔTm [11] [°C] | ΔTm [12] [°C] | ΔTm [13] [°C] | ΔTm [14] [°C] | ΔTm [15] [°C] | ΔTm [17] [°C] | ΔTm [4] [°C] | ΔTm [16] [°C]
1 | Cn1cc(C2=C(c3cn(CCCN)c4ccccc34)C(=O)NC2=O)c2ccccc21 | 1.4 | 0.3 | 2.6 | 6.9 | 11.9 | -0.5 | 0.6 | 0.8 | 0.5 | 2.1 | 6.7 | 0.5 | 6.7 | 4.6 | 2.3 | 2.5 | -0.8
2 | COc1ccc(CNC(=O)Nc2ncc([N+](=O)[O-])s2)cc1 | -0.1 | 0.3 | -0.1 | 0.1 | 7.3 | -0.9 | -0.5 | 0.2 | 1 | -0.3 | 1.5 | 1.7 | 1.1 | 0.5 | 0.1 | -0.9 | 0.3
3 | N#C/C(=C1/Nc2ccccc2S1)c1ccnc(NCCc2cccnc2)n1 | 6 | 1.4 | 2.6 | 6 | 11.4 | 7.5 | 3.8 | 3.5 | 2.4 | 2 | 10.9 | 7 | 1.4 | 4.7 | 0.8 | 1.6 | 0.8
4 | O=S(=O)(NCCNC/C=C/c1ccc(Br)cc1)c1cccc2cnccc12 | 0.9 | -0.1 | 0.5 | -0.6 | -0.6 | -0.3 | 0 | 0 | 0.4 | 1.2 | 1 | 0 | -0.4 | 1.7 | 1 | 3.8 | 0.6
5 | CN[C@@H]1CC2O[C@@](C)([C@@H]1OC)n1c3ccccc3c3c4c(c5c6ccccc6n2c5c31)C(=O)NC4 | 16.7 |  | 16.3 | 14.1 |  | 1.9 |  | 11.6 | 0.5 | 9.3 | 17.7 | 0.5 | 24.8 | 17.4 | 9.6 | 13 | 0.4
6 | COC(=O)[C@]1(O)C[C@@H]2O[C@@]1(C)n1c3ccccc3c3c4c(c5c6ccccc6n2c5c31)C(=O)NC4 (single isomer, unassigned) | 7.6 | 4 | 3.2 | 3.9 | 4.5 | 0.8 |  |  | 0.7 | 3 | 5.8 | 1.4 | 10.9 | 17.5 | 4.4 | 4.6 | 0.4

Further lines, with some results ahead:

Row | ΔTm [1] [°C] | ΔTm [2] [°C] | ΔTm [3] [°C] | ΔTm [5] [°C] | ΔTm [6] [°C] | ΔTm [7] [°C] | ΔTm [8] [°C] | ΔTm [9] [°C] | ΔTm [10] [°C] | ΔTm [11] [°C] | ΔTm [12] [°C] | ΔTm [13] [°C] | ΔTm [14] [°C] | ΔTm [15] [°C] | ΔTm [17] [°C] | SMILES | ΔTm [4] [°C] | ΔTm [16] [°C]
7 | 4.5 | 1.1 | 3.9 | -0.3 | 11.5 | 9.4 | 4.4 | 3.6 | 0.7 | 2.5 | 6.4 | 2.6 | 4.2 | 8.9 | 3.8 | O=Nc1c(-c2c(O)[nH]c3ccccc23)[nH]c2ccccc12 | 1.2 | 0.5
8 | 0.3 | 0 | -0.3 | -1.8 | 1.2 | 5.5 | 1.4 | 0.5 | 0.3 | 0.7 | 1.2 | 0.9 | 0.9 | 6.2 | 2.4 | CN(C)c1ccc(CC2C(=O)Nc3ccccc32)cc1 (stereo unspecified) | -0.8 | 0.1
9 | -0.4 | 0.2 | 2.2 | -0.2 | 6.9 | 3.7 | 0.3 | 0 | 14.8 | 0.7 | 0.7 | 2.5 | 5.9 | 0.6 | 0.9 | O=[N+]([O-])c1ccc(-c2nc(-c3ccc(F)cc3)c(-c3ccncc3)[nH]2)cc1 | 0.1 | 0.3
10 | -0.5 | -0.1 | 0 | 0.9 | 2.2 | 2.1 | 0.1 |  | 0.8 |  | 2 | 3.4 | 4.2 | 3.7 | 0.6 | COc1cc2ncnc(Nc3cccc(O)c3)c2cc1OC | 1.7 | -0.1
11 | 0 | 0.1 | -0.4 | 2.3 | 5 | 0.3 | 0.7 | 0.2 | 4.5 | 1 | 1.2 | -0.4 | -0.2 | 0.8 |  | Nc1n[nH]c2nnc(-c3c(-c4ccccc4)nn4ccccc34)cc12 | 3.9 | 0.2
12 | 0.2 | 0.1 | 0.5 | 0.5 | 1.9 | 0.3 | 1.9 | 0.3 | 7.1 | -0.5 | 0.5 | -0.2 | 4.3 | 0.2 |  | O=c1c(-c2ccc(F)cc2)c(-c2ccncc2)[nH]n1-c1ccc(Cl)cc1 | 0.6 | 0.8
13 | 1.6 | 0.7 | 0.8 | 2.4 | 1.1 | -0.2 | 0.3 | 0.9 | 0 | 1 | 3 | 0.6 | 0 | 0.6 |  | O=c1c(-c2ccc(O)cc2)coc2cc(O)cc(O)c12 | 0.5 | 0.7
